Measured values from ChEMBL document CHEMBL5113477, “Membrane acting Povarov-Doebner derived compounds potently disperse preformed multidrug resistant Gram-positive bacterial biofilms” (Eur J Med Chem, 2022).

Test system: Enterococcus faecalis
Assay: Synergistic antibiofilm activity against vancomycin-resistant Enterococcus faecalis ATCC 51575 in TSB broth assessed as dispersal of glucose-induced biofilm preincubated with glucose for 48 hrs followed by compound addition and further incubated for 24 hrs in presence of Bithionol by crystal violet staining based checkerboard assay
Format: functional

## Oc1ccc([C@@H]2Nc3ccc(S(F)(F)(F)(F)F)cc3[C@H]3[C@@H]4CC[C@@H](C4)[C@H]32)cc1
  MBEC: 2 µg/mL
